These results are taken from patent US9988366B2, “Pesticidally active heterocyclic derivatives with sulphur containing substituents” (Syngenta Participations AG, priority 2014, dated 2018).

Structures are written as SMILES.

Holding throughout (type): in vivo
In assay [1] the test system is Spodoptera littoralis (Egyptian cotton leaf worm). Nature of the assay: Example B1: Spodoptera littoralis larvicide, feeding/residual contact activity, preventive (cotton leaf discs). Conditions: foliar, 72 h, L1 larvae on sprayed cotton leaf discs, 3 days after treatment, read-out: effect in at least one of the three categories (mortality, anti-feedancy, or growth inhibition). The text has this: Example B1: Activity Against Spodoptera littoralis (Egyptian Cotton Leaf Worm)
(§1) (Larvicide, Feeding/Residual Contact Activity, Preventive)
Cotton leaf discs were placed on agar in a 24-well microtiter plate and sprayed with test solutions. After drying, the leaf discs were infested with five L1 larvae. The samples were checked for mortality, repellent effect, feeding behaviour, and growth regulation 3 days after treatment (DAT). Control of Spodoptera littoralis by a test sample is when at least one of mortality, anti-feedant effect, and growth inhibition is higher than an untreated sample.

The test system of assay [2] is Diabrotica balteata (corn root worm). Nature of the assay: Example B4: Diabrotica balteata larvae L2 on maize sprouts, feeding/contact, preventative. Conditions: 120 h, 5 days, read-out: activity (larval mortality and growth regulation). On the procedure:
Example B4: Activity Against Diabrotica balteata (Corn Root Worm)
(Larvae L2 on Maize Sprouts, Feeding/Contact, Preventative)
Maize sprouts, placed on an agar layer in 24 well micro titer plates were treated with test solutions by spraying. After drying, the MTPs were infested with L2 larvae (6-10 per well). After an incubation period of 5 days, samples were checked for larval mortality and growth regulation.

Assay [3] concerns Myzus persicae (green peach aphid). The assay can be described thus: Example B5: Myzus persicae feeding/residual contact activity, preventive, mixed population (sunflower leaf discs). The settings on record: foliar, 144 h, mixed population on sunflower leaf discs, 6 DAT. As to the method:
Example B5: Activity Against Myzus persicae (Green Peach Aphid)
(Feeding/Residual Contact Activity, Preventive), Mixed Population
Sunflower leaf discs were placed on agar in a 24-well microtiter plate and sprayed with test solutions. After drying, the leaf discs were infested with an aphid population of mixed ages. After an incubation period of 6 DAT, samples were checked for mortality and special effects (e.g. phytotoxicity).

Assay [4] has the same test system. Nature of the assay: Example B6: Myzus persicae feeding activity sachet test, mixed population. Conditions: 120 h, sucrose solution, 5 days after infestation. From the text:
Example B6: Activity Against Myzus persicae (Green Peach Aphid)
(Feeding Activity Sachet Test), Mixed Population
Test compounds were applied by pipette into 24 well plates and mixed with Sucrose solution. The plates were closed with a stretched Parafilm. A plastic stencil with 24 holes is placed onto the plate and infested pea seedlings were placed directly on the Parafilm. The infested plate is closed with a gel blotting paper and another plastic stencil and then turned upside down. 5 days after infestation the samples were checked on mortality. Application rate: 12.5 ppm.

Assay [5] concerns Plutella xylostella (diamond back moth). The assay can be described thus: Example B3: Plutella xylostella larvicide, feeding/residual contact activity, preventive (artificial diet). Conditions: 120 h, L2 larvae on artificial diet, 5 days, read-out: activity (larval mortality, antifeedant and growth regulation). As to the method:
Example B3: Activity Against Plutella xylostella (Diamond Back Moth)
as §1
24-well microtiter plate (MTP) with artificial diet was treated with test solutions by pipetting. After drying, the MTPs were infested with L2 larvae (10-15 per well). After an incubation period of 5 days, samples were checked for larval mortality, antifeedant and growth regulation.

The test system of assay [6] is Euschistus heros (neotropical brown stink bug). The assay can be described thus: Example B8: Euschistus heros, soybean leaf spray test. Conditions: 120 h, N-2 nymphs on soybean leaf, 5 days after infestation. As to the method: Example B8: Activity Against Euschistus heros (Neotropical Brown Stink Bug)
Soybean leaf on agar in 24-well microtiter plates were sprayed with aqueous test solutions prepared from 10,000 ppm DMSO stock solutions. After drying the leaf were infested with N-2 nymphs. The samples were assessed for mortality 5 days after infestation.

The mortality is the share of the test organisms that died.

Turning to `CCS(=O)(=O)c1cc(C(F)(F)F)cnc1-c1ncc(-c2cccc(C(F)(F)F)c2)n1C` [Compound P1, 3-ethylsulfonyl-2-[1-methyl-5-[3-(trifluoromethyl)phenyl]imidazol-2-yl]-5-(trifluoromethyl)pyridine], the percent control (mortality, anti-feedancy or growth inhibition) at 400 ppm in assay [1] is at least 80%. Moreover, the mortality at 400 ppm in assay [2] and in assay [3] was above 80% in each case. This compound also registered a mortality at 12.5 ppm in assay [4] of at least 80%.

On to `CCS(=O)(=O)c1cc(C(F)(F)F)cnc1-c1ncc(-c2cncc(C(F)(F)F)c2)n1C` [Compound P5], for which, in assay [1], the percent control (mortality, anti-feedancy or growth inhibition) at 400 ppm is at least 80%. In assay [3], this compound yielded a mortality at 400 ppm above 80%.

Turning to `CCS(=O)(=O)c1cc(C(F)(F)F)cnc1-c1nc(Cl)c(-c2ccc(C(F)(F)F)cc2)n1C` [Compound P7], the percent control (mortality, anti-feedancy or growth inhibition) at 400 ppm in assay [1] is at least 80%. In addition, the mortality at 400 ppm in assay [2] is above 80%.

As for `CCn1c(-c2ccc(C(F)(F)F)nc2)cnc1-c1ncc(C(F)(F)F)cc1S(=O)(=O)CC` [Compound P11], the percent control (mortality, anti-feedancy or growth inhibition) at 400 ppm in assay [1] was at least 80%. Moreover, the mortality at 400 ppm in assay [5], in assay [2] and in assay [3] was above 80% in each case.

Regarding `CCS(=O)(=O)c1cc(C(F)(F)F)cnc1-c1ncc(-c2cccc(SC(F)(F)F)c2)n1C` [Compound P13], in assay [1], the percent control (mortality, anti-feedancy or growth inhibition) at 400 ppm is at least 80%.

As to `CCS(=O)(=O)c1cc(C(F)(F)F)cnc1-c1ncc(-c2cccc(S(=O)(=O)C(F)(F)F)c2)n1C` [Compound P14], the percent control (mortality, anti-feedancy or growth inhibition) at 400 ppm in assay [1] is at least 80%. In assay [3], the mortality at 400 ppm is above 80%.

As to `CCS(=O)(=O)c1cc(C(F)(F)F)cnc1-c1nc(C)c(-c2ccc(C(F)(F)F)cc2)n1C` [Compound P16], in assay [2], the mortality at 400 ppm is above 80%.

On to `CCS(=O)(=O)c1cc(C(F)(F)F)cnc1-c1cnc(-c2cc(Cl)cc(Cl)c2)n1C` [Compound P17], for which the percent control (mortality, anti-feedancy or growth inhibition) at 400 ppm in assay [1] was at least 80%. The mortality at 400 ppm in assay [5] and in assay [2] was above 80% in each case.

For `CCS(=O)(=O)c1cc(C(F)(F)F)cnc1-c1ncc(-c2ccc(Cl)cc2)n1C` [Compound P18], the percent control (mortality, anti-feedancy or growth inhibition) at 400 ppm in assay [1] was at least 80%. Besides, the mortality at 400 ppm in assay [5] and in assay [2] was above 80% throughout.

With `CCS(=O)(=O)c1cc(C(F)(F)F)cnc1-c1ncc(-c2cc(C(F)(F)F)ccc2F)n1C` [Compound P20], the mortality at 400 ppm in assay [2] was above 80%.

Consider `CCS(=O)(=O)c1cc(C(F)(F)F)cnc1-c1ncc(-c2cccc(OC(F)(F)F)c2)n1C` [Compound P22], for which the percent control (mortality, anti-feedancy or growth inhibition) at 400 ppm in assay [1] is at least 80%. Moreover, in assay [2], the mortality at 400 ppm was above 80%.

`CCS(=O)(=O)c1cc(C(F)(F)F)cnc1-c1ncc(-c2ccc(Cl)nc2)n1C` [Compound P23]: in assay [1], the percent control (mortality, anti-feedancy or growth inhibition) at 400 ppm was at least 80%. Besides, the mortality at 400 ppm in assay [5] and in assay [2] was above 80% in each case. Moreover, in assay [4], the mortality at 12.5 ppm is at least 80%.

In the case of `CCS(=O)(=O)c1cc(C(F)(F)F)cnc1-c1ncc(-c2ccc(C(F)(C(F)(F)F)C(F)(F)F)cc2)n1C` [Compound P24], the percent control (mortality, anti-feedancy or growth inhibition) at 400 ppm in assay [1] is at least 80%. Also, the mortality at 400 ppm in assay [5] and in assay [2] was above 80% each time.

As for `CCS(=O)(=O)c1cc(C(F)(F)F)cnc1-c1ncc(-c2cccc(C#N)n2)n1C` [Compound P26], the mortality at 400 ppm in assay [2] is above 80%.

On to `CCS(=O)(=O)c1cc(C(F)(F)F)cnc1-c1ncc(-c2ccnc(Cl)c2)n1C` [Compound P28], for which the percent control (mortality, anti-feedancy or growth inhibition) at 400 ppm in assay [1] was at least 80%. The mortality at 400 ppm in assay [5] and in assay [2] was above 80% each time.

Take `CCS(=O)(=O)c1cc(C(F)(F)F)cnc1-c1ncc(-c2cccc(C(F)(F)Cl)c2)n1C` [Compound P29]: in assay [1], the percent control (mortality, anti-feedancy or growth inhibition) at 400 ppm was at least 80%. The mortality at 400 ppm in assay [5], in assay [2] and in assay [6] was above 80% throughout.

Consider `CCS(=O)(=O)c1cc(C(F)(F)F)cnc1-c1ncc(-c2ccc(C(F)(F)F)cc2Cl)n1C` [Compound P30], for which the percent control (mortality, anti-feedancy or growth inhibition) at 400 ppm in assay [1] is at least 80%. Further, the mortality at 400 ppm in assay [2] was above 80%.

In the case of `CCS(=O)(=O)c1cc(C(F)(F)F)cnc1-c1ncc(-c2cc(C#N)ccc2Cl)n1C` [Compound P32], the mortality at 400 ppm in assay [2] was above 80%.

Take `CCS(=O)(=O)c1cc(C(F)(F)F)cnc1-c1ncc(-c2ccc(Cl)c(Cl)c2F)n1C` [Compound P33]: the percent control (mortality, anti-feedancy or growth inhibition) at 400 ppm in assay [1] is at least 80%. Moreover, the mortality at 400 ppm in assay [5] and in assay [2] was above 80% in each case.

Consider `CCS(=O)(=O)c1cc(C(F)(F)F)cnc1-c1ncc(-c2cccc(Cl)c2)n1C` [Compound P34], for which the mortality at 400 ppm in assay [2] was above 80%.

Take `CCS(=O)(=O)c1cc(C(F)(F)F)cnc1-c1ncc(-c2ccc(Cl)c(Cl)c2)n1C` [Compound P35]: in assay [1], the percent control (mortality, anti-feedancy or growth inhibition) at 400 ppm is at least 80%. Also, the mortality at 400 ppm in assay [5], in assay [2] and in assay [6] was above 80% throughout.

On to `CCS(=O)(=O)c1cc(C(F)(F)F)cnc1-c1ncc(-c2cc(F)cc(F)c2)n1C` [Compound P36], for which the mortality at 400 ppm in assay [2] was above 80%.

Consider `CCS(=O)(=O)c1cc(C(F)(F)F)cnc1-c1ncc(-c2cccc(C#N)c2)n1C` [Compound P41], for which, in assay [1], the percent control (mortality, anti-feedancy or growth inhibition) at 400 ppm is at least 80%. Further, in assay [2], the mortality at 400 ppm is above 80%. The same compound returned a mortality at 12.5 ppm in assay [4] of at least 80%.

For `CCS(=O)(=O)c1cc(C(F)(F)F)cnc1-c1ncc(-c2ccc(F)c(F)c2)n1C` [Compound P43], the percent control (mortality, anti-feedancy or growth inhibition) at 400 ppm in assay [1] was at least 80%. For the same compound, the mortality at 400 ppm in assay [5] and in assay [2] was above 80% throughout. Also, the mortality at 12.5 ppm in assay [4] was at least 80%.

With `CCS(=O)(=O)c1cc(C(F)(F)F)cnc1-c1ncc(-c2cc(F)c(F)c(F)c2)n1C` [Compound P44], in assay [1], the percent control (mortality, anti-feedancy or growth inhibition) at 400 ppm was at least 80%. Also, the mortality at 400 ppm in assay [5] and in assay [2] was above 80% each time.

`CCS(=O)(=O)c1cc(C(F)(F)F)cnc1-c1ncc(-c2ccc(C#N)cc2)n1C` [Compound P45]: in assay [1], the percent control (mortality, anti-feedancy or growth inhibition) at 400 ppm was at least 80%. Besides, the mortality at 400 ppm in assay [5] and in assay [2] was above 80% throughout. The same compound returned a mortality at 12.5 ppm in assay [4] of at least 80%.

`CCS(=O)(=O)c1cc(C(F)(F)F)cnc1-c1ncc(-c2ccc(C#N)nc2)n1C` [Compound P47]: the percent control (mortality, anti-feedancy or growth inhibition) at 400 ppm in assay [1] was at least 80%. Also, the mortality at 400 ppm in assay [2] was above 80%.

Take `CCS(=O)(=O)c1cc(C(F)(F)F)cnc1-c1ncc(-c2ccc3c(c2)OC(F)(F)O3)n1C` [Compound P48]: the percent control (mortality, anti-feedancy or growth inhibition) at 400 ppm in assay [1] was at least 80%. For the same compound, the mortality at 400 ppm in assay [5] and in assay [2] was above 80% each time.

For the compound `CCS(=O)(=O)c1cc(C(F)(F)F)cnc1-c1ncc(-c2ccc(C(F)(F)F)c(C(F)(F)F)c2)n1C` [Compound P49], the percent control (mortality, anti-feedancy or growth inhibition) at 400 ppm in assay [1] is at least 80%. For the same compound, the mortality at 400 ppm in assay [5] and in assay [2] was above 80% in each case.

Turning to `CCS(=O)(=O)c1cc(C(F)(F)F)cnc1-c1ncc(-c2cc(C(F)(F)F)cc(Cl)n2)n1C` [Compound P51], the percent control (mortality, anti-feedancy or growth inhibition) at 400 ppm in assay [1] was at least 80%. Also, the mortality at 400 ppm in assay [5] and in assay [2] was above 80% each time.

`CCS(=O)(=O)c1cc(C(F)(F)F)cnc1-c1ncc(-c2cc(C(F)(F)F)cc(C(F)(F)F)c2)n1C` [Compound P52]: the percent control (mortality, anti-feedancy or growth inhibition) at 400 ppm in assay [1] was at least 80%. Besides, the mortality at 400 ppm in assay [5] and in assay [2] was above 80% in each case.

Consider `CCS(=O)(=O)c1cc(C(F)(F)F)cnc1-c1ncc(-c2ccc(F)c(Cl)c2)n1C` [Compound P53], for which, in assay [1], the percent control (mortality, anti-feedancy or growth inhibition) at 400 ppm was at least 80%. Moreover, the mortality at 400 ppm in assay [5] and in assay [2] was above 80% in each case.
